Source: patent US20130165368A1, “ANTIMICROBIAL COMPOUNDS” (priority 2010, published 2013)

Tested on: MRSA NCTC 11939
Test: Synergy testing: disc susceptibility, zone of inhibition on agar containing Laureth derivative
Assay type: cell-based, Staphylococcus aureus
Procedure: There now follows data relating to a screen for synergistic interaction between Laureth derivatives [C12E1 to C12E8] and 12 conventional anti-staphylococcal agents.
Ethoxylated Lauryl Alcohol Derivative Preparation As plates containing quarter strength of the MIC of NCTC 11939 are needed, and therefore very small weights of each compound, they were prepared at twenty time strength in 20 mL volumes in plastic universals. Once prepared these solutions were diluted […] by adding 1 mL to 1 mL SDW, resulting a 2 mL volume at ten times strength. This was undertaken in duplicate to create two identical plates.
IST was prepared as previously stated in above. 18 mL agar was added to each universal and then poured into sterile Petri dishes. Control plates were prepared as stated above
A 0.5 McFarland suspension of MRSA NCTC 11939 was prepared using SDW. This was then adjusted to a concentration of 1.5×107 by adding 200 μL to 1.8 mL of SDW. Once diluted, a sterile cotton swab was used to spread the suspension evenly across the entire surface of each agar plate.
Twelve antibiotics discs were added to the plates, 6 per plate in a circle. The plates were then incubated aerobically at 37° C.
The diameter of the zones of clearance were measured and recorded in millimetres. The zones for each compound were compared to the control and to BSAC breakpoints.
A variation of zone size within 2 mm is within acceptable limits of assay reproducibility.

[1] = antibiotic disc in the presence of L1 [C12E1] 0.005 mmol/L
[2] = antibiotic disc in the presence of L2 [C12E2] 0.0275 mmol/L
[3] = antibiotic disc in the presence of L3 [C12E3] 0.01375 mmol/L
[4] = antibiotic disc in the presence of L4 [C12E4] 0.0275 mmol/L
[5] = antibiotic disc in the presence of L5 [C12E5] 0.0275 mmol/L
[6] = antibiotic disc in the presence of L6 [C12E6] 0.0275 mmol/L
[7] = antibiotic disc in the presence of L7 [C12E7] 0.0275 mmol/L
[8] = antibiotic disc in the presence of L8 [C12E8] 0.055 mmol/L
[9] = antibiotic disc, Control, 0 mmol/L Laureth derivative

Compound	Zone of Inhibition [1]	Zone of Inhibition [2]	Zone of Inhibition [3]	Zone of Inhibition [4]	Zone of Inhibition [5]	Zone of Inhibition [6]	Zone of Inhibition [7]	Zone of Inhibition [8]	Zone of Inhibition [9]
O=C(N[C@H](CO)[C@H](O)c1ccc([N+](=O)[O-])cc1)C(Cl)Cl [Chloramphenicol]	22 mm	22 mm	24 mm	23 mm	25 mm	23 mm	22 mm	23 mm	
CCC[C@@H]1C[C@@H](C(=O)N[C@@H]([C@H]2O[C@H](SC)[C@H](O)[C@@H](O)[C@H]2O)[C@H](C)Cl)N(C)C1 [Clindamycin]	33 mm	32 mm	32 mm	34 mm	33 mm	33 mm	34 mm	35 mm	
CC[C@H]1OC(=O)[C@H](C)[C@@H](O[C@H]2C[C@@](C)(OC)[C@@H](O)[C@H](C)O2)[C@H](C)[C@@H](O[C@@H]2O[C@H](C)C[C@H](N(C)C)[C@H]2O)[C@](C)(O)C[C@@H](C)C(=O)[C@H](C)[C@@H](O)[C@]1(C)O [Erythromycin]	7 mm	7 mm	7 mm	8 mm	7 mm	7 mm	7 mm	8 mm	
CC(=O)O[C@H]1C[C@@]2(C)[C@@H](C[C@@H](O)[C@H]3[C@@]4(C)CC[C@@H](O)[C@@H](C)[C@@H]4CC[C@@]32C)/C1=C(\CCC=C(C)C)C(=O)O [Fusidic Acid]	36 mm	37 mm	35 mm	38 mm	37 mm	39 mm	37 mm		
COc1c(N2C[C@@H]3CCCN[C@@H]3C2)c(F)cc2c(=O)c(C(=O)O)cn(C3CC3)c12 [Moxyfloxacin]	14 mm	14 mm	16 mm	14 mm	13 mm	14 mm	18 mm		15 mm
C/C(=C\C(=O)OCCCCCCCCC(=O)O)C[C@@H]1OC[C@H](C[C@@H]2O[C@H]2[C@@H](C)[C@H](C)O)[C@@H](O)[C@H]1O [Muprocin]	32 mm	33 mm	32 mm	34 mm	32 mm	33 mm	34 mm	35 mm	33 mm
CO[C@H]1/C=C/O[C@@]2(C)Oc3c(C)c(O)c4c(O)c(c(/C=N/N5CCN(C)CC5)c(O)c4c3C2=O)NC(=O)/C(C)=C\C=C\[C@H](C)[C@H](O)[C@@H](C)[C@@H](O)[C@@H](C)[C@H](OC(C)=O)[C@@H]1C [Rifampicin]	37 mm	37 mm	37 mm	40 mm	39 mm	40 mm	39 mm		
CN(C)[C@@H]1C(O)=C(C(N)=O)C(=O)[C@@]2(O)C(O)=C3C(=O)c4c(O)cccc4[C@@](C)(O)[C@H]3C[C@@H]12 [Tetracycline]	34 mm	35 mm	35 mm	36 mm	32 mm	35 mm	36 mm		
COc1cc(Cc2cnc(N)nc2N)cc(OC)c1OC [Trimethoprim]	29 mm	30 mm	28 mm	31 mm	30 mm	31 mm	30 mm		
CN[C@H](CC(C)C)C(=O)N[C@H]1C(=O)N[C@@H](CC(N)=O)C(=O)N[C@H]2C(=O)N[C@H]3C(=O)N[C@H](C(=O)N[C@H](C(=O)O)c4cc(O)cc(O)c4-c4cc3ccc4O)[C@H](O)c3ccc(c(Cl)c3)Oc3cc2cc(c3O[C@@H]2O[C@H](CO)[C@@H](O)[C@H](O)[C@H]2O[C@H]2C[C@](C)(N)[C@H](O)[C@H](C)O2)Oc2ccc(cc2Cl)[C@H]1O [Vancomycin]	21 mm	21 mm	19 mm	21 mm	20 mm	20 mm	20 mm	23 mm	
Gentamicin	27 mm	27 mm	27 mm	29 mm	28 mm	30 mm	30 mm	33 mm	28 mm
